Data: US20040101840A1, “Identification, cloning and characterization of a novel pc-1 gene differentially expressed in prostate cells and tissues” (priority 2003, published 2004)

Columns and labels:
Assay type in all cases: cell-based, human
[1] = tested on: PC-1 gene expression in LNCaP and C4-2 cells; assay: Antiandrogen blockade of androgen-induced PC-1 gene expression in prostate cancer cell lines
Description: Parental LNCaP and its derivative cell lines, C4, C4-2, and C4-2B, were described previously. ARCaP cells, a highly invasive prostate cancer cell line, were generated by our lab from the ascites fluid of a person with Al and aggressive human prostate cancer. […]. To test the effect of androgen in affecting PC-1 gene expression in prostate cancer cell lines, cells were exposed to a synthetic androgen methyltrioenolone (R1881) at a concentration of 0.1, 1, and 10 nM. […] The culture was allowed to continue for two days and total cellular RNA was isolated and subjected to RT-PCR and Northern blot analysis for the expression of PC-1 gene. […]
(§1) First strain cDNA was synthesized from 1 μg of total RNA with a hexamer random primer obtained from Perkin-Elmer using a MMLV reverse transcriptase obtained from Life Technologies, Inc. (Grand Island, N.Y.) according to the manufacturer's instructions. cDNAs obtained were subjected to Taq DNA polymerase PCR reaction under the condition of 94° for 1 minute, 60° for 1 minute, 72° for 45 seconds, or 94° for 1 minute, 53° for 1 minute, and 72° for 1 minute for 30 cycles, and an extension of 72° for 10 minutes. […] The PCR. products were evaluated on a 1% agarose gel and confirmed by Southern blot analysis. […]

[2] = tested on: D52/N8 gene expression in LNCaP and C4-2 cells; assay: Androgen regulation of D52/N8 gene expression in prostate cancer cell lines
Description: Parental LNCaP and its derivative cell lines, C4, C4-2, and C4-2B, were described previously. ARCaP cells, a highly invasive prostate cancer cell line, were generated by our lab from the ascites fluid of a person with Al and aggressive human prostate cancer. […]. To test the effect of androgen in affecting PC-1 gene expression in prostate cancer cell lines, cells were exposed to a synthetic androgen methyltrioenolone (R1881) at a concentration of 0.1, 1, and 10 nM. To assess the specificity of androgen induction of PC-1 gene expression, some of the cells exposed to 10 nM of R1881 were also treated with an antiandrogen Casodex, 10 μM. […]
as §1

[3] = tested on: PC-1 gene expression in C4-2 cells; assay: Androgen regulation of PC-1 gene expression in C4-2 cells (RT-PCR and Northern blot); conditions: two days exposure
Description: (§2) Parental LNCaP and its derivative cell lines, C4, C4-2, and C4-2B, were described previously. ARCaP cells, a highly invasive prostate cancer cell line, were generated by our lab from the ascites fluid of a person with Al and aggressive human prostate cancer. All other cell lines were obtained from ATCC and were cultured in TB containing 5% FBS, as described previously. To test the effect of androgen in affecting PC-1 gene expression in prostate cancer cell lines, cells were exposed to a synthetic androgen methyltrioenolone (R1881) at a concentration of 0.1, 1, and 10 nM. To assess the specificity of androgen induction of PC-1 gene expression, some of the cells exposed to 10 nM of R1881 were also treated with an antiandrogen Casodex, 10 μM. […]
as §1

[4] = tested on: PC-1 gene expression in LNCaP cells; assay: Androgen regulation of PC-1 gene expression in LNCaP cells (RT-PCR and Northern blot); conditions: two days exposure
Description: as §2, §1

Compound | effect on R1881-increased expression of the PC-1 gene ([1]; coadministration with R1881, Casodex (10 nM) as printed in FIG. 5 legend) | effect on androgen-induced PC-1 gene expression ([1]; coadministration with androgen, LNCaP and C4-2) | inhibition of D52/N8 expression ([2]; coadministration of R1881 and Casodex) | concentration at which steady-state levels of PC-1 gene expression are increased [3] | regulation of D52/N8 expression by androgen ([2]; R1881 alone) | concentration required to increase PC-1 gene expression [4]
CC(O)(CS(=O)(=O)c1ccc(F)cc1)C(=O)Nc1ccc(C#N)c(C(F)(F)F)c1 (stereo not drawn) [Casodex] | blocked | effectively terminated | nor was its expression inhibited |  |  | 
C[C@]1(O)CC[C@H]2[C@@H]3CCC4=CC(=O)CCC4=C3C=C[C@@]21C [R1881, methyltrioenolone] |  |  |  | 0.1 nM | not regulated | 1 nM
